Measured values: PubChem BioAssay (NCI)
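Five compound concentrations were applied to cells in 96-well plates for 48 hours; endpoints were derived by simple linear interpolation of the resulting dose-response curve. GI50 = concentration required for 50% inhibition of growth. At the TGI there is no net growth.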

Assays:
Assay in all cases: inhibition of tumour cell growth, NCI panel, 48 h
HT29 colon = tested on: HT29 colon
UACC-257 melanoma = tested on: UACC-257 melanoma
OVCAR-5 ovarian = tested on: OVCAR-5 ovarian
OVCAR-8 ovarian = tested on: OVCAR-8 ovarian
HL-60(TB) leukemia = tested on: HL-60(TB) leukemia
T-47D breast = tested on: T-47D breast
UACC-62 melanoma = tested on: UACC-62 melanoma
SN12C renal = tested on: SN12C renal
UO-31 renal = tested on: UO-31 renal
HCT-15 colon = tested on: HCT-15 colon
SW-620 colon = tested on: SW-620 colon
SK-MEL-2 melanoma = tested on: SK-MEL-2 melanoma
LOX IMVI melanoma = tested on: LOX IMVI melanoma
CCRF-CEM leukemia = tested on: CCRF-CEM leukemia
SNB-75 CNS = tested on: SNB-75 CNS
MDA-MB-435 = tested on: MDA-MB-435
NCI/ADR-RES ovarian = tested on: NCI/ADR-RES ovarian
BT-549 breast = tested on: BT-549 breast
NCI-H522 lung = tested on: NCI-H522 lung
HOP-92 NSCLC = tested on: HOP-92 NSCLC
NCI-H23 lung = tested on: NCI-H23 lung
OVCAR-3 ovarian = tested on: OVCAR-3 ovarian
SK-MEL-28 melanoma = tested on: SK-MEL-28 melanoma
786-0 renal = tested on: 786-0 renal
K-562 leukemia = tested on: K-562 leukemia
HCC-2998 colon = tested on: HCC-2998 colon
MOLT-4 leukemia = tested on: MOLT-4 leukemia
MALME-3M melanoma = tested on: MALME-3M melanoma
M14 melanoma = tested on: M14 melanoma
SF-268 CNS = tested on: SF-268 CNS
DU-145 prostate = tested on: DU-145 prostate
U251 CNS = tested on: U251 CNS
SK-MEL-5 melanoma = tested on: SK-MEL-5 melanoma
RPMI-8226 leukemia = tested on: RPMI-8226 leukemia
CAKI-1 renal = tested on: CAKI-1 renal
HS 578T breast = tested on: HS 578T breast
RXF 393 renal = tested on: RXF 393 renal
PC-3 prostate = tested on: PC-3 prostate
HCT-116 colon = tested on: HCT-116 colon
A549 NSCLC = tested on: A549 NSCLC
EKVX NSCLC = tested on: EKVX NSCLC
SK-OV-3 ovarian = tested on: SK-OV-3 ovarian
IGROV1 ovarian = tested on: IGROV1 ovarian
SF-539 CNS = tested on: SF-539 CNS
MCF7 breast = tested on: MCF7 breast
A498 renal = tested on: A498 renal
SNB-19 CNS = tested on: SNB-19 CNS
KM12 colon = tested on: KM12 colon
NCI-H460 lung = tested on: NCI-H460 lung
SR leukemia = tested on: SR leukemia
ACHN renal = tested on: ACHN renal
SF-295 CNS = tested on: SF-295 CNS
TK-10 renal = tested on: TK-10 renal
OVCAR-4 ovarian = tested on: OVCAR-4 ovarian
NCI-H226 lung = tested on: NCI-H226 lung
MDA-MB-231 breast = tested on: MDA-MB-231 breast
HOP-62 NSCLC = tested on: HOP-62 NSCLC
COLO 205 colon = tested on: COLO 205 colon

## Cc1cc(Cl)ccc1NC(=O)c1cc2ccccc2cc1O
HT29 colon
  GI50: 12.3 µM
  TGI: > 100 µM
UACC-257 melanoma
  GI50: 0.611 µM
  TGI: 3.84 µM
OVCAR-5 ovarian
  GI50: 4.2 µM
  TGI: > 100 µM
OVCAR-8 ovarian
  GI50: 0.882 µM
  TGI: > 100 µM
HL-60(TB) leukemia
  GI50: 0.435 µM
  TGI: 3.47 µM
T-47D breast
  GI50: 0.852 µM
  TGI: > 26.8 µM
UACC-62 melanoma
  GI50: 0.354 µM
  TGI: > 100 µM
SN12C renal
  GI50: 0.377 µM
  TGI: > 100 µM
UO-31 renal
  GI50: 0.405 µM
  TGI: > 100 µM
HCT-15 colon
  GI50: 0.641 µM
  TGI: > 100 µM
SW-620 colon
  GI50: 1.59 µM
  TGI: > 100 µM
SK-MEL-2 melanoma
  GI50: 0.432 µM
LOX IMVI melanoma
  GI50: 0.539 µM
  TGI: > 100 µM
CCRF-CEM leukemia
  GI50: 1.22 µM
  TGI: > 100 µM
SNB-75 CNS
  GI50: 7.14 µM
  TGI: > 100 µM
MDA-MB-435
  GI50: 0.555 µM
  TGI: > 100 µM
NCI/ADR-RES ovarian
  GI50: 0.433 µM
BT-549 breast
  GI50: 0.673 µM
  TGI: > 100 µM
NCI-H522 lung
  GI50: 0.304 µM
  TGI: > 29.4 µM
HOP-92 NSCLC
  GI50: 0.146 µM
  TGI: 0.545 µM
NCI-H23 lung
  GI50: 0.295 µM
  TGI: > 100 µM
OVCAR-3 ovarian
  GI50: 0.369 µM
  TGI: > 34.9 µM
SK-MEL-28 melanoma
  GI50: 0.767 µM
  TGI: > 100 µM
786-0 renal
  GI50: 1.19 µM
  TGI: > 100 µM
K-562 leukemia
  GI50: 0.419 µM
  TGI: > 100 µM
HCC-2998 colon
  GI50: 3.92 µM
  TGI: > 100 µM
MOLT-4 leukemia
  GI50: 0.651 µM
  TGI: > 36.2 µM
MALME-3M melanoma
  GI50: 0.342 µM
  TGI: > 100 µM
M14 melanoma
  GI50: 0.657 µM
  TGI: > 100 µM
SF-268 CNS
  GI50: 1.91 µM
  TGI: > 100 µM
DU-145 prostate
  GI50: 1.15 µM
  TGI: > 100 µM
U251 CNS
  GI50: 0.503 µM
  TGI: > 27.5 µM
SK-MEL-5 melanoma
  GI50: 0.373 µM
  TGI: 2.43 µM
RPMI-8226 leukemia
  GI50: 0.294 µM
  TGI: 1.18 µM
CAKI-1 renal
  GI50: 0.381 µM
  TGI: > 100 µM
HS 578T breast
  GI50: 1.31 µM
  TGI: > 100 µM
RXF 393 renal
  GI50: 1.18 µM
  TGI: 8.6 µM
PC-3 prostate
  GI50: 0.875 µM
  TGI: 28.4 µM
HCT-116 colon
  GI50: 0.405 µM
  TGI: > 100 µM
A549 NSCLC
  GI50: 0.931 µM
  TGI: > 100 µM
EKVX NSCLC
  GI50: 2.61 µM
  TGI: > 100 µM
SK-OV-3 ovarian
  GI50: 2.11 µM
  TGI: > 100 µM
IGROV1 ovarian
  GI50: 0.993 µM
  TGI: > 100 µM
SF-539 CNS
  GI50: 0.783 µM
  TGI: > 100 µM
MCF7 breast
  GI50: 1.57 µM
  TGI: > 100 µM
A498 renal
  GI50: 0.22 µM
  TGI: 1.4 µM
SNB-19 CNS
  GI50: 0.736 µM
  TGI: > 100 µM
KM12 colon
  GI50: 1.91 µM
  TGI: > 44 µM
NCI-H460 lung
  GI50: 0.511 µM
  TGI: > 100 µM
SR leukemia
  GI50: 0.443 µM
  TGI: 8.77 µM
ACHN renal
  GI50: 0.583 µM
  TGI: > 100 µM
SF-295 CNS
  GI50: 2.56 µM
  TGI: > 28.6 µM
TK-10 renal
  GI50: 1.56 µM
  TGI: > 100 µM
OVCAR-4 ovarian
  GI50: 1.94 µM
  TGI: > 100 µM
NCI-H226 lung
  GI50: 0.93 µM
  TGI: > 100 µM
MDA-MB-231 breast
  GI50: 1.01 µM
  TGI: 25.5 µM
HOP-62 NSCLC
  GI50: 2.68 µM
  TGI: > 100 µM
COLO 205 colon
  GI50: 6.46 µM
  TGI: 30.5 µM

## O=C(NCc1ccc(Cn2c(=O)sn(-c3ccccc3)c2=O)cc1)OCc1ccc2c(Br)cc(Br)c(O)c2n1
HT29 colon
  GI50: 0.539 µM
  TGI: 1.89 µM
UACC-257 melanoma
  GI50: 1.26 µM
  TGI: 2.74 µM
OVCAR-5 ovarian
  GI50: 1.43 µM
  TGI: 2.97 µM
OVCAR-8 ovarian
  GI50: 0.762 µM
  TGI: 2.44 µM
HL-60(TB) leukemia
  GI50: 0.659 µM
  TGI: > 20.3 µM
T-47D breast
  GI50: 1.71 µM
  TGI: 5.66 µM
UACC-62 melanoma
  GI50: 1.03 µM
  TGI: 2.24 µM
SN12C renal
  GI50: 0.703 µM
  TGI: 2.06 µM
UO-31 renal
  GI50: 0.392 µM
  TGI: 1.77 µM
HCT-15 colon
  GI50: 0.222 µM
  TGI: 0.572 µM
SW-620 colon
  GI50: 0.246 µM
  TGI: 0.649 µM
SK-MEL-2 melanoma
  GI50: 1.34 µM
  TGI: 2.82 µM
LOX IMVI melanoma
  GI50: 0.171 µM
  TGI: 0.348 µM
CCRF-CEM leukemia
  GI50: 0.351 µM
  TGI: > 100 µM
SNB-75 CNS
  GI50: 0.606 µM
  TGI: 1.97 µM
MDA-MB-435
  GI50: 0.427 µM
  TGI: 1.59 µM
NCI/ADR-RES ovarian
  GI50: 1.2 µM
  TGI: 7.06 µM
BT-549 breast
  GI50: 0.614 µM
  TGI: 1.99 µM
NCI-H522 lung
  GI50: 0.309 µM
  TGI: 1.08 µM
HOP-92 NSCLC
  GI50: 0.379 µM
  TGI: 1.84 µM
NCI-H23 lung
  GI50: 1.4 µM
  TGI: 3.06 µM
OVCAR-3 ovarian
  GI50: 0.267 µM
  TGI: 0.738 µM
SK-MEL-28 melanoma
  GI50: 1.17 µM
  TGI: 2.4 µM
786-0 renal
  GI50: 0.495 µM
  TGI: 1.08 µM
K-562 leukemia
  GI50: 0.322 µM
  TGI: > 100 µM
HCC-2998 colon
  GI50: 1.8 µM
  TGI: 3.41 µM
MOLT-4 leukemia
  GI50: 0.503 µM
  TGI: > 22.3 µM
MALME-3M melanoma
  GI50: 1.38 µM
  TGI: 2.78 µM
M14 melanoma
  GI50: 0.412 µM
  TGI: 1.51 µM
SF-268 CNS
  GI50: 1.46 µM
  TGI: 2.88 µM
DU-145 prostate
  GI50: 0.992 µM
  TGI: 2.19 µM
U251 CNS
  GI50: 1.52 µM
  TGI: 3 µM
SK-MEL-5 melanoma
  GI50: 1.44 µM
  TGI: 2.75 µM
RPMI-8226 leukemia
  GI50: 0.312 µM
  TGI: 1.72 µM
CAKI-1 renal
  GI50: 0.404 µM
  TGI: 1.67 µM
HS 578T breast
  GI50: 1.62 µM
  TGI: 4.9 µM
RXF 393 renal
  GI50: 0.546 µM
  TGI: 1.83 µM
PC-3 prostate
  GI50: 0.727 µM
  TGI: 2.18 µM
HCT-116 colon
  GI50: 0.141 µM
  TGI: 0.328 µM
A549 NSCLC
  GI50: 1.51 µM
  TGI: 3.78 µM
EKVX NSCLC
  GI50: 1.5 µM
  TGI: 3.12 µM
SK-OV-3 ovarian
  GI50: 3.61 µM
  TGI: 14 µM
IGROV1 ovarian
  GI50: 0.428 µM
  TGI: 1.58 µM
SF-539 CNS
  GI50: 0.793 µM
  TGI: 2.07 µM
MCF7 breast
  GI50: 0.399 µM
  TGI: 1.96 µM
A498 renal
  GI50: 1.53 µM
  TGI: 2.9 µM
SNB-19 CNS
  GI50: 1.55 µM
  TGI: 2.9 µM
KM12 colon
  GI50: 1.57 µM
  TGI: 3.47 µM
NCI-H460 lung
  GI50: 1.48 µM
  TGI: 3.37 µM
SR leukemia
  GI50: 0.376 µM
  TGI: > 100 µM
ACHN renal
  GI50: 0.281 µM
  TGI: 0.927 µM
SF-295 CNS
  GI50: 1.6 µM
  TGI: 3.06 µM
TK-10 renal
  GI50: 0.404 µM
  TGI: 1.39 µM
OVCAR-4 ovarian
  GI50: 0.695 µM
  TGI: 1.96 µM
NCI-H226 lung
  GI50: 1.02 µM
  TGI: 2.41 µM
MDA-MB-231 breast
  GI50: 1.18 µM
  TGI: 2.53 µM
HOP-62 NSCLC
  GI50: 1.52 µM
  TGI: 3.45 µM
COLO 205 colon
  GI50: 0.399 µM
  TGI: 1.79 µM
